In US9486456B2, “Treatment of esophageal motility disorder using sepiapterin, tetrahydrobiopterin and derivatives thereof” (The Board of Regents of the University of Texas System, priority 2006, dated 2016):
Read-outs that look alike come from different tables or passages of the source.

Columns and labels:
[1] = test system: nNOSalpha protein; assay: nNOSalpha protein expression, Western blot; format: in vivo, rat; settings: for nNOSalpha protein level: diabetic female rat gastric antrum, sepiapterin 10 days or BH4 2 weeks, 20 mg kg^−1 per day
Method: nNOSa protein was quantified in gastric antrum homogenates from all groups using standard western blot analysis, as described in our previous study (94). Proteins were measured by Bio-Rad protein assay (Bio-Rad, Hercules, Calif.) and 30 μg protein was separated by 6% SDS polyacrylamide gel electrophoresis (SDS-PAGE). The membrane was immunoblotted with polyclonal nNOSa primary antibody (Zymed Laboratories Inc., CA) and anti-rabbit IgG conjugated with horseradish peroxidase (Sigma Chemical, St. Louis, Mo.) as secondary antibody. Binding of antibodies to the blots was detected with enhanced chemiluminescence system (ECL, Amersham Pharmacia Biotech, Piscataway, N.J.) following manufacturer's instructions. Stripped blots were re-probed with g-tubulin specific polyclonal antibodies (Sigma Chemical, St. Louis, Mo.) to enable normalization of signals between samples. Band intensities were analyzed using Bio-Rad Gel Doc (Bio-Rad, Hercules, Calif.).

[2] = test system: nNOSalpha; assay: nNOSalpha dimerization, LT-SDS-PAGE, after in vivo treatment; design: species or system rat; settings: for nNOSalpha dimmer/monomer level: diabetic female rat gastric antrum, sepiapterin 10 days or BH4 2 weeks, 20 mg kg^−1 per day
Method: Levels of nNOSa monomer and dimer were quantified by western blotting via Low temperature (LT)-PAGE in gastric antrum homogenates as described previously (94). LT-SDS-PAGE was performed on ice. The low-temperature process was used to identify nNOS dimers and monomers in the native state as low temperature is known to prevent monomerization of nNOS dimmers. For the low-temperature processing, 30 μg of protein in standard Laemmli buffer at 4° C. was used for SDS-PAGE. The mixture was incubated at 0° C. for 30 min before LT-SDS-PAGE using a 6% separating gel. All gels and buffers were pre-equilibrated to 4° C. prior to electrophoresis and the buffer tank placed in an ice-bath during electrophoresis to maintain the gel temperature below 15° C. A polyclonal antibody specific to nNOSa (Zymed Laboratories) and anti-rabbit IgG conjugated with horseradish peroxidase (Sigma Chemical, St. Louis, Mo.) were used as the primary and secondary antibodies, respectively.

[3] = Body weight in control and STZ-diabetic female rats; format: in vivo, rat; settings: STZ-diabetic female rats + SEP 20 mg kg^−1 day^−1, 10 days
Method: (§1) Diabetes was induced in overnight fasted animals by a single intraperitoneal injection of streptozotocin (STZ, 55 mg kg^−1) (Sigma Chemical, St. Louis, Mo.) prepared in 9 mmol citrate buffer, pH 4.0. Control animals were injected with the vehicle (9 mmol citrate buffer, pH 4.0) (94). Blood glucose levels were examined in overnight fasted animals, 48 h post STZ injection. […] Blood glucose levels in vehicle-treated overnight fasting rats ranged between 80-95 mg dl^−1. Both control and diabetic female rats were selected during the diestrus phase of the estrous cycle using vaginal smear testing method [by measuring vaginal cytology (90-100% of leucocytes) under microscope] for further experiments. As reported earlier, 60-70% of diabetic rats show a persistent diestrous stage of the estrous cycle (data not shown) (95-96).
(§2) At the end of 7th week of diabetes induction, animals were divided into four groups, i.e. control female rats (C), diabetic female rats (DB), BH4 supplemented diabetic female rats (DB+BH4) and SEP supplemented diabetic female rats (DB+SEP). DB+BH4 were provided with BH4 pellets (20 mg kg^−1 body wt day^−1) for next 2 weeks. […] Tissue samples were snap frozen in liquid nitrogen and stored at −80° C. until analyzed. BH4 or SEP-pellets used in this study were prepared by compressing (Schircks Laboratories, Switzerland) with rodent chow and stored at −20° C. until used. […]

[4] = Fasting blood glucose in control and STZ-diabetic female rats; format: in vivo, rat
Method: as §1, §2

[5] = test system: female rats; assay: Solid gastric emptying studies; format: in vivo, rat; settings: for Effect on gastric emptying for solids: OVX female rats, 21 day release pellets E2 2 mg or P4 20 mg per kg
Method: In addition, using the similar gastric emptying protocol, accelerated gastric emptying was observed instead of delayed gastric emptying in spontaneous diabetic female but not in male diabetic animals (101).
According to the protocol, animals were fasted over night (provide water). On the next day, known amount of food was fed to the animals for 3 h. At the end of 3 h collected the remaining food from the cage and calculated the amount of food intake. Then fast the animals for 4 hrs without food and water. At the end of fast, animals were euthanized, collected the gastric tissue and measured the weight of the whole stomach. Then removed the food contents by opening the stomach and measured the empty stomach weight. The rate of gastric emptying was calculated according to the following equation: gastric emptying (% in 4 h)=(1−gastric content food intake^−1)×100.

[6] = test system: gastric muscle strips; assay: EFS-induced nitrergic (NANC) relaxation of gastric muscle strips after in vivo treatment (organ bath); design: species or system rat
Method: Electric field stimulation (EFS)-induced NANC relaxation was studied in circular gastric antrum muscle strips. Muscle strips were tied with silk thread at both ends and were mounted in 10-ml water-jacketed organ baths containing Krebs buffer (11 mM glucose) at 37° C. and continuously bubbled with 95% O2-5% CO2 (Radnoti Glass Technology, Monrovia, Calif.). Tension for each muscle strip was monitored with an isometric force transducer and analyzed by a digital recording system (Biopac Systems, Santa Barbara, Calif.). A passive tension equal to 2 g was applied on each strip in the 1 h equilibration period through an incremental increase (0.5 g, four times, at 15 min interval). Gastric antrum muscle strips were exposed to atropine, phentolamine and propranolol (10 μmol each) in bath solution for 1 h to block cholinergic and adrenergic responses. 5-hydroxytryptamine (5-HT; 100 μM) pre-contracted strips were exposed to EFS (90 V, 2 Hz, 1-ms pulse for duration of 1 min) to elicit NANC relaxation.
To investigate the in vivo effect of methotrexate (MTX) on EFS induced nitrergic relaxation; a group of animals were supplemented with MTX (inhibitor of dihydro folate reductase, DHFR) 3.75 mg kg^−1 body wt. per twice a day for 4 days. Gastric strips from control animals and MTX treated animals were incubated in organ bath and nitrergic relaxation was measured by EFS. At the end of each experiment, the muscle strip was blotted dry with filter paper and weighed. Comparisons between groups were performed by measuring the area under the curve (AUC mg^−1 tissue) of the EFS-induced relaxation (AUCR) for 1 min and the baseline for 1 min (AUCB) according to the formula (AUCR−AUCB) weight of tissue (mg)^−1=AUC mg of tissue^−1.

[7] = test system: gastric antrum muscle strip; assay: In vitro NO release from gastric antrum strips (total nitrite); design: species or system rat; settings: 48 h incubation
Method: Animals from control groups were killed by CO2 asphyxiation, the abdominal cavity opened, and the stomach dissected and transferred in chilled oxygenated Krebs bicarbonate solution of the following composition (in mmol): 118.0 NaCl, 4.7 KCl, 25.0 NaHCO3, 1.5 CaCl2, 1.2 MgSO4, 1.2 KH2PO4, and 11.5 glucose (pH 7.4). Antrum tissue was harvested and cut into mucosa-free strips and were cultured for 48 h (37° C., 5% CO2) in […] of phenol red-free DMEM supplemented with NB27 (2%) and antibiotics (1%) in the presence of normal glucose (control), control+MTX (100 μM), control+MTX+SEP (100 μM, 100 μM). On completion of incubation, DMEM ([…]) was collected and stored at −80° C. for analysis of NO released in medium during incubation period. NO released in the medium was analyzed as total nitrite (metabolic byproduct of NO) following the protocol supplied with a commercially available kit (EMD Chemicals, Gibbstown, N.J.).

[8] = test system: gastric tissues; assay: Nitrergic relaxation of gastric tissues after in vitro incubation (organ bath); design: species or system rat
[9] = test system: rats; assay: Intragastric (antrum) pressure by ambulatory telemetry; format: in vivo, rat; settings: L-NAME 200 mg/day/kg s.c. osmotic mini-pump, 4 days
Method: The intragastric antrum pressure (IGAP) was measured in normal and diabetic male (FIG. 3A) and female (FIG. 3B) rats. The transducer pressure catheter was introduced into the gastric antrum cavity 5 mm proximal to the pylorus to record IGAP (mmHg×sec). After recording the baseline IGAP, N^G-nitro-L-arginine methyl ester (L-NAME, 200 mg/day/kg body weight (BW)/rat) was administered subcutaneously in the same rats by osmotic mini-pumps (Alza, Palo Alto, Calif., model 2ML1 with a pumping rate of 10 μl/hour) for 4 days. All subsequent studies were performed 1 week after surgery in overnight fasted rats that were awake and in a free-moving state. Pressure recordings were performed at least 2-3 hours between 9-12 am. Bilateral ovariectomy was performed as reported previously. Dietary BH4 (25 mg/day/kg body weight (BE)/rat). *p<0.05. ANOVA.
Intragastric pressure (IGP) was measured using ambulatory telemetric device. […]
Dietary BH4 (25 mg/kg b.w/rat/day) was supplemented for female rats for 12 weeks beginning from day 2 after diabetic induction. Intragastric pressure (IGP) was measured in female control, diabetic and diabetic+BH4 treated rats. […] In another experiment, diabetic females were treated for 3 weeks with BH4 and nNOS alpha protein expression was measured in treated and untreated gastric tissues.

[10] = test system: gastric LM-MPs; assay: NO release from gastric LM-MP incubated with DAHP; settings: DAHP 10 mM, 48 hours, healthy female rat gastric LM-MP
Method: (§3) Gastric LM-MPs were incubated for 48 hrs in the presence or the absence of DAHP (10 mM) and nNOS dimerization (FIG. 9A-9B) in tissues and NO release (FIG. 9C) in the media were assessed. (n=3).
Gastric LM-MPs were incubated for 24 hours in DMEM supplemented with 2% neurobasal medium (NB27) and 1% antibiotics. The concentration of NO (micromoles/mg tissue) was measured using readily available NO kit (Cayman corporation). […] The present invention contemplates examining whether supplementation of BH4 and female sex hormones restores reduced NO release in diabetic female gastric LM-MP tissues.
(§4) The present invention examined whether treatment with DAHP in vitro uncoupled gastric nNOS dimerization and NO release in healthy female rats. Gastric longitudinal muscle-myenteric plexus (LM-MP) were incubated for 48 hours in the presence or absence of DHAP (10 mM). It was observed that inhibition of BH4 biosynthesis with DAHP decreased both nNOS dimerization (FIGS. 9A-9B) and NO release (FIG. 9C). These additional data further support the hypothesis that impaired biosynthesis of gastric BH4 accounts for the decrease in nNOS activity and nitrergic relaxation in female diabetic gastroparesis.

[11] = test system: nNOS; assay: nNOS dimerization in gastric LM-MP incubated in vitro; settings: DAHP 10 mM, 48 hours, healthy female rat gastric LM-MP
Method: as §3, §4

[12] = diabetic female rats + dietary sepiapterin 20 mg kg^−1, 10 days
[13] = healthy female rats, MTX 3.75 mg kg^−1 i.p. twice a day, 4 days

C[C@H](O)[C@H](O)[C@H]1CNc2nc(N)[nH]c(=O)c2N1 [tetrahydrobiopterin]
nNOSalpha protein level [1]: 0.42±0.05 | nNOSalpha dimmer/monomer level [2]: 0.36±0.11

C[C@H](O)C(=O)C1=Nc2c(nc(N)[nH]c2=O)NC1 [sepiapterin]
Body Weight [3]: 188 ± 4.3 g | Body Weight ([3]; listed as SEP): 188 ± 4.3 g | Blood Glucose ([4]; STZ-diabetic female rats + SEP, fasting): 494.5 ± 13.96 mg/dL | Effect on blood glucose levels ([4]; both control and diabetic female rats): unchanged | solid gastric emptying (% in 4 h) ([5]; control female rats + dietary sepiapterin 20 mg kg^−1, 10 days): 74±4 % in 4 h | solid gastric emptying (% in 4 h) [5, 12]: 67.0±8.2 % in 4 h | nitrergic relaxation, gastric antrum, EFS 2 Hz ([6]; control female rats + sepiapterin): −0.51±0.06 AUC mg^−1 tissue | nitrergic relaxation, gastric antrum, EFS 2 Hz [6, 12]: −0.35±0.03 AUC mg^−1 tissue | NO release ([7]; MTX 100 μM + SEP 100 μM): 1.02±0.19 | Change in nNOSalpha protein expression ([1]; control female rat gastric antrum, BH4 or sepiapterin): no change | nNOSalpha protein level [1]: 0.88±0.15 | nNOSalpha dimmer/monomer level [2]: 0.64±0.07

CN(Cc1cnc2nc(N)nc(N)c2n1)c1ccc(C(=O)N[C@@H](CCC(=O)O)C(=O)O)cc1 [MTX, methotrexate]
nitrergic relaxation, antrum, EFS 2 Hz [6, 13]: −0.08±0.04 AUC mg^−1 tissue | nitrergic relaxation, fundus, EFS 2 Hz [6, 13]: −0.17±0.076 AUC mg^−1 tissue | nitrergic relaxation, pylorus, EFS 2 Hz [6, 13]: −0.13±0.05 AUC mg^−1 tissue | NO release ([7]; MTX 100 μM): 0.73±0.15 | nNOSalpha dimer/monomer ratio ([2]; female rat gastric antrum, MTX 3.75 mg kg^−1 twice a day, 4 days): 0.2±0.04

COC(=O)[C@@H](N)CCCNC(=N)N[N+](=O)[O-] [L-NAME, N^G-nitro-L-arginine methyl ester]
Effect on nitrergic relaxation ([8]; preincubation L-NAME 10^−4M, FC and FD groups, 2 Hz): significant inhibition | Effect on IGAP ([9]; female rats): significantly elevated | Effect on IGAP ([9]; male rats): decreased

C[C@]12CC[C@@H]3c4ccc(O)cc4CC[C@H]3[C@@H]1CC[C@@H]2O [E2, estradiol-17beta]
Effect on gastric emptying for solids [5]: significantly delayed | Effect on delayed solid gastric emptying ([5]; diabetic female rats, E2 2 mg/kg, 3 weeks): significantly restored | Effect on reduced nNOSalpha protein expression ([1]; diabetic female rat gastric tissues, E2 2 mg/kg 21 day pellet): significantly restored

NC1=N[C@H](O)[C@H]2[C@H]3O[C@]4(O)O[C@@H]([C@@H](O)[C@@]2(N1)[C@@H]4O)[C@]3(O)CO [TTX, tetrodotoxin]
Effect on nitrergic relaxation [8]: abolished

Nc1cc(O)nc(N)n1 [DAHP, 2,4-diamino-6-hydroxypyrimidine]
Effect on nitrergic relaxation ([8]; DAHP 10 mM, 3 hours incubation, female control gastric tissues, n=2): inhibited | Effect on NO release [10]: decreased | Effect on nNOS dimerization [11]: decreased

CC(=O)[C@H]1CC[C@H]2[C@@H]3CCC4=CC(=O)CC[C@]4(C)[C@H]3CC[C@]12C [P4, progesterone]
Effect on gastric emptying for solids [5]: not
